Data taken from patent publication US12325715B2, “Fluorous metal chelates compositions” (The Regents of the University of California, priority 2018, dated 2025).

Assays:
[1] = Intramolecular 19F NMR relaxation rates at 9.4 T; type: physicochemical; conditions: 5 CF2 groups (precursors and Ga3+ chelate), ± s.e.m.
From the text: Intramolecular ^19F NMR relaxometry measurements of 5a isomers further confirmed the structural analyses. We observed that among Fe3+ chelates, 5a OOO isomer had the highest, and 5a PPP isomer had the lowest, R1 and R2 values (Table 3). Ortho-substitution caused a more drastic intramolecular PRE, by ˜3 orders of magnitude, compared to para-substitution due to the closer proximity of the Fe3+ paramagnetic center to the ortho position ([…]) compared to the para position ([…]).
NMR spectra and relaxation rates were recorded on a Bruker Ascend 400 MHz (9.4 T) spectrometer (Billerica, MA). Additional relaxation rate measurements were performed at 3 T using a GE750 (General Electric, Milwaukee, WI) clinical MRI system equipped with a custom dual-channel ^19F/1H 72 mm diameter volume coil (RAPID Biomedical, Rimpar, Germany). The ^19F NMR spectra were referenced to an internal standard, sodium trifluoroacetate (NaTFA, 0.1 wt %, −76.00 ppm, Sigma-Aldrich, T6508), which was placed in a separate sealed capillary tube within the NMR tube. Relaxation measurements were performed using a standard inversion recovery pulse sequence and a Carr-Purcell-Meiboom-Gill sequence with echo-time (TE) values in 12 linear increments. The T1 and T2 values were obtained by nonlinear fitting using MNova 6.0.2 software (Mestrelab, Escondido, CA). Fit errors were less than 5% of T1 and T2 values. For quantitative peak measurements, spectra were acquired using calibrated 90° pulses, 32,000 complex points, spectral window 0 to −200 ppm, relaxation delay 2.5 s, and 128 averages. Spectra were processed in MNova with manual phase correction and Whittaker smoother baseline correction (filter=1 ppm). Relaxation parameters were measured for six middle CF2 peaks of PFOB, spanning ˜10 ppm, which account for 12 out of 17 F atoms in the molecule. To assay nanoemulsion uptake (^19F/cell) using NMR, an aliquot of 1×10^6 cells were pelleted and resuspended in 0.1 mL of lysis solution (0.5% Triton X, 100 mM NaCl, 20 mM Tris, 1 mM EDTA) and reference compound NaTFA (0.745 mg/mL)/D2O was added to 5 mm NMR tube. The integrated ratio of PFOB fluorine peaks to NaTFA singlet fluorine peak at −76.00 ppm determined the amount of ^19F in the cell pellet and the ^19F/cell was calculated.
(§1) NMR measurements. NMR spectra and relaxation rates were recorded on a Bruker Ascend 400 MHz (9.4 T) spectrometer (Billerica, MA). […] For quantitative peak measurements, spectra were acquired using calibrated 90° pulses, 32,000 complex points, spectral window 0 to −200 ppm, relaxation delay 2.5 s, and 128 averages. […] Relaxation parameters were measured for six middle CF2 peaks of PFOB, spanning ˜10 ppm, which account for 12 out of 17 F atoms in the molecule. […]

[2] = Kinetics of emulsion metalation with metal salts (UV-Vis); type: physicochemical
Experimental: Strong absorbance of aromatic diketone and its complexes permits facile kinetic investigation of metalation rates. In a typical measurement, emulsion from example 4 was diluted to 70 uM diketone (excess ligand, modeling radiolabeling conditions) into a solution of chosen pH and treated with 10 uM metal cations of relevance to medical imaging, including Fe^3+ (MRI), Cu^2+ (PET), Ga^3+ (PET, SPECT), Sc^3+ (PET), and In^3+ (SPECT). In all cases, UV-Vis spectral changes indicative of metal uptake into the fluorous phase were detected, proportional in magnitude to the amount of metal. For some metals, kinetic analysis was performed. The reaction time course fit well to a pseudo-first-order process with rate constant kobs (Table 1).

[3] = 19F R1 relaxation leakage test of metalated emulsions with EDTA at 37 °C; type: physicochemical; conditions: small fluorinated diketones
From the text: Decrease in relaxation rate ^19F R1 would indicate sequestration of Fe^3+ to the aqueous phase, where it is too far from fluorine-19 nuclei to have an effect on ^19F R1.
It may be necessary for sufficient stability to use fluorinated diketones with heavily fluorinated substituents that are well-miscible with other fluorinated agents known in the art to be useful for ^19F MRI.

[4] = 3 T; cited from earlier work
[5] = cited from earlier work
[6] = Intermolecular 19F NMR relaxometry and susceptibility shift in PFOB; type: physicochemical; conditions: neat PFOB
From the text: We screened the impact of various cations bound to SALTAME 5a and dissolved in PFOB via NMR relaxometry and susceptibility shift measurements (Table 4). Of the period-4 cations tested (V3+, Cr3+, Mn2+, Fe3+, Co2+, Cu2+, Ni2+, Zn2+, Ga3+), only Mn4+, Fe3+, Co3+, and Ga3+ formed stable and separable (by column chromatography) chelates with SALTAME. […] The diamagnetic Ga3+ chelate had little relaxation effects or shift for PFOB. […] Mn4+ changed r1, r2 and susceptibility shift, but to a much lesser extent than Fe3+.
The longitudinal and transverse ^19F relaxation rates of the Fe3+ chelate, 5a POP, was further evaluated as a function of iron concentration at the clinically-relevant field strength of 3 T yielding relaxivities r1 and r2 of 0.56 s−1 mM−1 and 1.67 s−1 mM−1, respectively, compared to 0.50 s−1 mM−1 and 1.07 s−1 mM−1 values of r1 and r2 at 9.4 T, respectively. […]
as §1, with “NMR” for “NMR measurements. NMR”

RAW cells = test: NAO flow cytometry assay for cytotoxicity (apoptosis); type: cell-based, murine; conditions: 16 h labeling, compared to unlabeled cells
Experimental: We investigated the potential effect of P-PFOB labeling on RAW cell viability and phenotype (FIG. 4A-FIG. 4D). To study cytotoxicity, we used a flow cytometry assay for apoptosis (FIGS. 4A-4C) using 10-N-nonyl acridine orange (NAO).^20 As a positive control to induce oxidative stress, 10% ethanol was added to the cell media. […] Side-scatter is routinely used in flow cytometry to distinguish cell types by granularity. Labeled cells often display increased granularity with internalization of PFC droplets. To assay cell phenotype, we used flow cytometry to monitor potential changes in cell surface CD86 expression as a marker for macrophage activation, where increased levels indicated a pro-inflammatory response to label. Lipopolysaccharide (LPS) treatment was used as a positive control to induce a pro-inflammatory phenotype.
Viability assay. 10-N-nonyl acridine orange (NAO) was obtained from Invitrogen (A1372, Carlsbad, CA). NE labeled and control RAW cells were stained with 100 ng/ml of NAO for 15 minutes followed by washes according to manufacturer's instructions. As a positive control, cells were stressed by incubation with 10% ethanol at 37° C. containing 5% CO2 for 90 minutes before NAO staining. Green fluorescence from NAO dye (emission max at 520 nm) was detected using flow cytometry (LSR Fortessa, BD Biosciences).

[7] = final [M3+] 10 uM, final [ligand] 70 uM, pH 2.1 (8 mM HCl)

In the case of `O=Cc1cc(C(F)(F)C(F)(F)C(F)(F)C(F)(F)C(F)(F)C(F)(F)F)ccc1O` [3a, 5-Perfluorohexyl-salicylaldehyde], the “R1 (intramolecular 19F)” value [1] is reported as 1.33 ± 0.01 s⁻¹ and the “R2 (intramolecular 19F)” value [1] is reported as 1.75 ± 0.01 s⁻¹.

With `O=Cc1cccc(C(F)(F)C(F)(F)C(F)(F)C(F)(F)C(F)(F)C(F)(F)F)c1O` [3b, 3-Perfluorohexyl-salicylaldehyde] the “R1 (intramolecular 19F)” value [1] was 0.87 ± 0.01 s⁻¹ and the “R2 (intramolecular 19F)” value [1] was 1.12 ± 0.01 s⁻¹.

`[Cl][Fe]([Cl])[Cl]` [FeCl3] gave a kobs ([2]; final [M3+] 5 uM, final [ligand] 70 uM, pH 2.1 (8 mM HCl)) of 0.79 min⁻¹ and a kobs [2, 7] of 0.70 min⁻¹.

With `[Cl][Ga]([Cl])[Cl]` [GaCl3] the kobs [2, 7] was 0.043 min⁻¹.

For `O=C(CC(=O)C(F)(F)F)c1ccccc1` [H-bta], the enhancing relaxation [3] was “highly effective” and the “stability under EDTA competition and cell labeling” value (“stability” below) [3] was “not stable enough”.

In the case of `CC(C)(C)C(=O)CC(=O)C(F)(F)C(F)(F)C(F)(F)F` [H-fod], the enhancing relaxation [3] is reported as “highly effective” and the “stability” value [3] is reported as “not stable enough”.

With `O=C(CC(=O)C(F)(F)F)C(F)(F)F` [H-hfp] the enhancing relaxation [3] was “highly effective” and the “stability” value [3] was “not stable enough”.

In the case of `C/C(O)=C/C(=O)C(F)(F)C(F)(F)C(F)(F)F` [H-hhd], the enhancing relaxation [3] is reported as “highly effective” and the “stability” value [3] is reported as “not stable enough”.

In the case of `C/C(O)=C/C(=O)C(F)(F)C(F)(F)C(F)(F)C(F)(F)C(F)(F)C(F)(F)F` [H-tdd], the enhancing relaxation [3] is reported as “highly effective” and the “stability” value [3] is reported as “not stable enough”.

For `O=C(CC(=O)C(F)(F)F)c1cccs1` [H-tta], the enhancing relaxation [3] was “highly effective” and the “stability” value [3] was “not stable enough”.

In the case of `[Cl-].[Cl-].[Cl-].[In+3]` [InCl3], the kobs ([2]; final [M3+] 2 uM, final [ligand] 14 uM, pH ~5 (unbuffered H2O)) is reported as >10 min⁻¹ and the kobs ([2]; final [M3+] 10 uM, final [ligand] 70 uM, pH 7.4 HEPES) is reported as 0.0322 min⁻¹.

For `FC1(F)OC(F)(F)C(F)(F)OC(F)(F)C(F)(F)OC(F)(F)C(F)(F)OC(F)(F)C(F)(F)OC1(F)F` [PFCE, perfluoro-15-crown-5-ether], the T1 [4] is listed as ~0.9 ms and the “half-life in vivo (body)” value [5] is listed as > 100 days.

For `FC(F)(F)C(F)(F)C(F)(F)C(F)(F)C(F)(F)C(F)(F)C(F)(F)C(F)(F)Br` [PFOB, perfluorooctylbromide], the R1 ([6]; 3 T) is given as 0.79 s⁻¹, the R1 ([6]; 9.4 T) is given as 1.4 s⁻¹ and the T1 [4] is given as ~1200 ms. For the same compound, the “half-life in vivo (body)” value [5] was 3 to 8 days.

For `CCO` [ethanol], the “cytotoxicity (NAO apoptosis assay)” value (RAW cells) was “display cytotoxicity”.
